Test results published in PMC7760137, “Solid Lipid Nanoparticles as Formulative Strategy to Increase Oral Permeation of a Molecule Active in Multidrug-Resistant Tuberculosis Management” (Pharmaceutics, 2020).
In brackets after ≈: the same amount, converted by molar mass.

Legend:
M. tuberculosis H37Rv = assay: Drug sensitivity testing, Bactec MGIT 960; assay type: cell-based, Mycobacterium tuberculosis; set-up: key: sensitive (S); resistant (R); conditions: strain H37Rv
[1] = test system: M. tuberculosis strain 952; assay: Drug sensitivity testing, Bactec MGIT 960; assay type: cell-based, Mycobacterium tuberculosis; set-up: key: sensitive (S); resistant (R)
[2] = test system: M. tuberculosis strain 1097; assay: Drug sensitivity testing, Bactec MGIT 960; assay type: cell-based, Mycobacterium tuberculosis; set-up: key: sensitive (S); resistant (R)
[3] = test system: M. tuberculosis strain 1670; assay: Drug sensitivity testing, Bactec MGIT 960; assay type: cell-based, Mycobacterium tuberculosis; set-up: key: sensitive (S); resistant (R)
[4] = test system: M. tuberculosis strain 512; assay: Drug sensitivity testing, Bactec MGIT 960; assay type: cell-based, Mycobacterium tuberculosis; set-up: key: sensitive (S); resistant (R)
[5] = test system: M. tuberculosis strain 600; assay: Drug sensitivity testing, Bactec MGIT 960; assay type: cell-based, Mycobacterium tuberculosis; set-up: key: sensitive (S); resistant (R)
[6] = test system: M. tuberculosis strain 368; assay: Drug sensitivity testing, Bactec MGIT 960; assay type: cell-based, Mycobacterium tuberculosis; set-up: key: sensitive (S); resistant (R)
[7] = test system: M. tuberculosis strain 1762; assay: Drug sensitivity testing, Bactec MGIT 960; assay type: cell-based, Mycobacterium tuberculosis; set-up: key: sensitive (S); resistant (R)
[8] = test system: M. tuberculosis strain 571; assay: Drug sensitivity testing, Bactec MGIT 960; assay type: cell-based, Mycobacterium tuberculosis; set-up: key: sensitive (S); resistant (R)
[9] = test system: M. tuberculosis strain 1120; assay: Drug sensitivity testing, Bactec MGIT 960; assay type: cell-based, Mycobacterium tuberculosis; set-up: key: sensitive (S); resistant (R)
[10] = test system: M. tuberculosis H37Rv strain (ATCC 27294); assay: Resazurin microtiter assay (REMA); assay type: cell-based; conditions: Mycobacterium tuberculosis, drug alone
Method: REMA assays were performed in sterile 96-well microtiter plates with round-bottom wells, sealed in a plastic bag. Mycobacteria were cultured in Middlebrook 7H11 medium supplemented with OADC. […] Final bacterial inocula were approximately 1–5 × 10^5 CFU/mL. Plates were incubated at 37 °C and were read after 72 h. Once the final visual reading was performed, 30 μL of 0.02% resazurin was added to each well before reincubation overnight. Bacterial growth was measured by the change in color from blue (oxidized state) to pink (reduced), and minimal inhibitory concentration (MIC) was defined as the lowest drug concentration that prevented the color change and, therefore, the mycobacteria growth.

[11] = test system: M. tuberculosis clinical isolate 952; assay: microbe, parasite or virus in culture; assay type: cell-based; conditions: Mycobacterium tuberculosis
[12] = test system: M. tuberculosis clinical isolate 1097; assay: microbe, parasite or virus in culture; assay type: cell-based; conditions: Mycobacterium tuberculosis
[13] = test system: M. tuberculosis clinical isolate 1670; assay: microbe, parasite or virus in culture; assay type: cell-based; conditions: Mycobacterium tuberculosis
[14] = test system: M. tuberculosis clinical isolate 512; assay: microbe, parasite or virus in culture; assay type: cell-based; conditions: Mycobacterium tuberculosis
[15] = test system: M. tuberculosis clinical isolate 600; assay: microbe, parasite or virus in culture; assay type: cell-based; conditions: Mycobacterium tuberculosis
[16] = test system: M. tuberculosis clinical isolate 368; assay: microbe, parasite or virus in culture; assay type: cell-based; conditions: Mycobacterium tuberculosis
[17] = test system: M. tuberculosis clinical isolate 1762; assay: microbe, parasite or virus in culture; assay type: cell-based; conditions: Mycobacterium tuberculosis
[18] = test system: M. tuberculosis clinical isolate 571; assay: microbe, parasite or virus in culture; assay type: cell-based; conditions: Mycobacterium tuberculosis
[19] = test system: M. tuberculosis clinical isolate 1120; assay: microbe, parasite or virus in culture; assay type: cell-based; conditions: Mycobacterium tuberculosis

SMILES | Drug sensitivity test result (M. tuberculosis H37Rv) | Drug sensitivity test result [1] | Drug sensitivity test result [2] | Drug sensitivity test result [3] | Drug sensitivity test result [4] | Drug sensitivity test result [5] | Drug sensitivity test result [6] | Drug sensitivity test result [7] | Drug sensitivity test result [8] | Drug sensitivity test result [9] | MIC [10] | MIC [11] | MIC [12] | MIC [13] | MIC [14] | MIC [15] | MIC [16] | MIC [17] | MIC [18] | MIC [19]
CC[C@@H](CO)NCCN[C@@H](CC)CO [EMB, ethambutol] | S | S | R | S | R | R | R | R | R | R | 1 µg/mL (≈ 4.89 µM) | 1 µg/mL (≈ 4.89 µM) | 32 µg/mL (≈ 157 µM) | 1 µg/mL (≈ 4.89 µM) | 4 µg/mL (≈ 19.6 µM) | > 16 µg/mL | > 16 µg/mL | 4 µg/mL (≈ 19.6 µM) | > 16 µg/mL | > 64 µg/mL
NNC(=O)c1ccncc1 [INH, isoniazid] | S | S | R | S | R | R | R | S | R | R | 0.125 µg/mL (≈ 0.911 µM) | 0.062 µg/mL (≈ 0.452 µM) | 2 µg/mL (≈ 14.6 µM) | 0.125 µg/mL (≈ 0.911 µM) | 1 µg/mL (≈ 7.29 µM) | > 1 µg/mL | < 1 µg/mL | 0.062 µg/mL (≈ 0.452 µM) | > 1 µg/mL | > 16 µg/mL
CO[C@H]1/C=C/O[C@@]2(C)Oc3c(C)c(O)c4c(O)c(c(/C=N/N5CCN(C)CC5)c(O)c4c3C2=O)NC(=O)/C(C)=C\C=C\[C@H](C)[C@H](O)[C@@H](C)[C@@H](O)[C@@H](C)[C@H](OC(C)=O)[C@@H]1C [RIF, rifampicin] | S | R | S | S | R | R | S | R | R | R | 0.25 µg/mL (≈ 0.304 µM) | 0.5 µg/mL (≈ 0.608 µM) | 0.25 µg/mL (≈ 0.304 µM) | 0.125 µg/mL (≈ 0.152 µM) | > 2 µg/mL | > 2 µg/mL | 0.25 µg/mL (≈ 0.304 µM) | > 2 µg/mL | > 2 µg/mL | 8 µg/mL (≈ 9.72 µM)
[H]/N=C(/N)N[C@H]1[C@H](O)[C@@H](O)[C@H](O[C@@H]2O[C@@H](C)[C@](O)(C=O)[C@H]2O[C@@H]2O[C@@H](CO)[C@H](O)[C@@H](O)[C@@H]2NC)[C@@H](N/C(N)=N\[H])[C@@H]1O [SM, streptomycin] | S | S | R | S | S | R | S | S | R | R | 0.125 µg/mL (≈ 0.215 µM) | 0.062 µg/mL (≈ 0.107 µM) | 4 µg/mL (≈ 6.88 µM) | 0.125 µg/mL (≈ 0.215 µM) | 0.5 µg/mL (≈ 0.86 µM) | > 4 µg/mL | 0.5 µg/mL (≈ 0.86 µM) | 0.125 µg/mL (≈ 0.215 µM) | 0.25 µg/mL (≈ 0.43 µM) | 4 µg/mL (≈ 6.88 µM)
